Our source for the T/C values is PubChem BioAssay AID248 (DTP/NCI, 2004).

The experiment concerns L1210 leukemia ip in BDF1 mice, survival T/C. The experiment in a line: NCI In Vivo Anticancer Drug Screen. Data for tumor model L1210 Leukemia (intraperitoneal) in B6D2F1 (BDF1) mice. As to conditions: endpoint: mean survival time, higher = longer survival. A digest of the protocol: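 Survival endpoint. Drug-treated group vs vehicle group, expressed as T divided by C. Tumor passaged by transplantation.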

Setting [1] is: dose: 50.0 mg/kg/injection, schedule: Q01DX001 (ip), vehicle: Klucel (hydroxypropylcellulose) (HPC).
Setting [2] is: dose: 100.0 mg/kg/injection, schedule: Q01DX001 (ip), vehicle: Klucel (hydroxypropylcellulose) (HPC).
Setting [3] is: dose: 100.0 mg/kg/injection, schedule: Q01DX001 (ip), vehicle: saline with Tween-80.
Where [4] appears, read: dose: 200.0 mg/kg/injection, schedule: Q01DX001 (ip), vehicle: saline with Tween-80.
[5] abbreviates: dose: 50.0 mg/kg/injection, schedule: Q01DX009 (ip), vehicle: Klucel (hydroxypropylcellulose) (HPC).
The mark [6] stands for this setting: dose: 100.0 mg/kg/injection, schedule: Q01DX009 (ip), vehicle: Klucel (hydroxypropylcellulose) (HPC).
[7] abbreviates: dose: 200.0 mg/kg/injection, schedule: Q01DX009 (ip), vehicle: Klucel (hydroxypropylcellulose) (HPC).
[8] abbreviates: dose: 100.0 mg/kg/injection, schedule: Q04DX003 (ip), vehicle: Klucel (hydroxypropylcellulose) (HPC).
[9] abbreviates: dose: 200.0 mg/kg/injection, schedule: Q04DX003 (ip), vehicle: Klucel (hydroxypropylcellulose) (HPC).
[10] abbreviates: dose: 400.0 mg/kg/injection, schedule: Q04DX003 (ip), vehicle: Klucel (hydroxypropylcellulose) (HPC).
Where [11] appears, read: dose: 400.0 mg/kg/injection, schedule: Q01DX009 (ip), vehicle: Klucel (hydroxypropylcellulose) (HPC).

Inconclusive results and toxic doses are left out.

In the case of `COC1(OC)CC2C(=O)CCCC21OC` (stereo not given), the T/C is 100 % of control (dose: 100.0 mg/kg/injection, schedule: Q04DX002 (ip), vehicle: saline with Tween-80); 93 % of control (dose: 200.0 mg/kg/injection, schedule: Q04DX002 (ip), vehicle: saline with Tween-80); 97 % of control (dose: 400.0 mg/kg/injection, schedule: Q04DX002 (ip), vehicle: saline with Tween-80).

Take `CN(C)C(=O)CCl`: the T/C (dose: 100.0 mg/kg/injection, schedule: Q01DX009 (ip), vehicle: saline) is 96 % of control; the T/C (dose: 200.0 mg/kg/injection, schedule: Q01DX009 (ip), vehicle: saline) was 98 % of control; the T/C (dose: 400.0 mg/kg/injection, schedule: Q01DX009 (ip), vehicle: saline) was 104 % of control.

For the compound `CC(C)(O)C(=O)N/N=C/c1ccc(Cl)cc1Cl`, the T/C (dose: 25.0 mg/kg/injection, schedule: Q01DX009 (ip), vehicle: saline with Tween-80) was 102 % of control.

With `Nc1nc(N)c(-c2ccc(Cl)c(Cl)c2)c(COc2ccc(CCNS(=O)(=O)c3ccc(S(=O)(=O)F)cc3)cc2)n1`, the T/C reads like this: (dose: 25.0 mg/kg/injection, schedule: Q01DX001 (ip), vehicle: Klucel (hydroxypropylcellulose) (HPC)) 96 % of control; under setting [1], 102 % of control; under setting [2], 96 % of control.

Turning to `CC(=O)Nc1ccc(C(C)(C)C)cc1`, the T/C was 95 % of control under setting [3]; 95 % of control under setting [4]; 95 % of control (dose: 400.0 mg/kg/injection, schedule: Q01DX001 (ip), vehicle: saline with Tween-80).

For the compound `CCCCn1cnc2c(=O)[nH]cnc21`, the T/C is 93 % of control (dose: 66.12 mg/kg/injection, schedule: Q01DX Z (ip), vehicle: carboxymethylcellulose (CMC)); 94 % of control (dose: 132.25 mg/kg/injection, schedule: Q01DX Z (ip), vehicle: carboxymethylcellulose (CMC)); 100 % of control (dose: 132.25 mg/kg/injection, schedule: Q01DX Z (oral), vehicle: carboxymethylcellulose (CMC)); 90 % of control (dose: 264.5 mg/kg/injection, schedule: Q01DX Z (ip), vehicle: carboxymethylcellulose (CMC)); 96 % of control (dose: 264.5 mg/kg/injection, schedule: Q01DX Z (oral), vehicle: carboxymethylcellulose (CMC)); 94 % of control (dose: 529.0 mg/kg/injection, schedule: Q01DX Z (oral), vehicle: carboxymethylcellulose (CMC)).

Regarding `Cc1c2ccccc2c(CNCCSCCCl)c2ccc3ccccc3c12`, the T/C (dose: 50.0 mg/kg/injection, schedule: Q01DX009 (ip), vehicle: saline) was 119 % of control; the T/C (dose: 150.0 mg/kg/injection, schedule: Q01DX009 (ip), vehicle: saline) was 109 % of control; the T/C (dose: 167.0 mg/kg/injection, schedule: Q01DX009 (ip), vehicle: saline) is 94 % of control.

As to `O=C(O)c1cccc(I)c1.[Ni]`, the T/C was 100 % of control (dose: 25.0 mg/kg/injection, schedule: Q04DX002 (ip), vehicle: gum acacia) and 94 % of control (dose: 50.0 mg/kg/injection, schedule: Q04DX002 (ip), vehicle: gum acacia).

With `Oc1ccc(CCNCc2cc3c(cc2Br)OCO3)cc1`, the T/C reads like this: under setting [5], 101 % of control; under setting [6], 96 % of control; under setting [7], 108 % of control.

Turning to `Cc1ccc(S(=O)(=O)NCl)cc1`, for the setting “dose: 100.0 mg/kg/injection, schedule: Q04DX003 (ip), vehicle: saline”, the T/C is 99 % of control.

With `Cc1ccc(NC(=O)N(CCCl)N=O)cc1Cl`, the T/C (dose: 0.5 mg/kg/injection, schedule: Q01DX009 (ip), vehicle: carboxymethylcellulose (CMC)) is 112 % of control; the T/C (dose: 1.0 mg/kg/injection, schedule: Q01DX009 (ip), vehicle: carboxymethylcellulose (CMC)) is 117 % of control; the T/C (dose: 13.0 mg/kg/injection, schedule: Q01DX001 (ip), vehicle: carboxymethylcellulose (CMC)) was 120 % of control; the T/C (dose: 13.0 mg/kg/injection, schedule: Q01DX007 (ip), vehicle: carboxymethylcellulose (CMC)) was 159 % of control; the T/C (dose: 14.0 mg/kg/injection, schedule: Q01DX009 (ip), vehicle: carboxymethylcellulose (CMC)) was 164 % of control; the T/C (dose: 29.0 mg/kg/injection, schedule: Q01DX001 (ip), vehicle: other) was 229 % of control. Moreover, the T/C is 166 % of control (dose: 33.0 mg/kg/injection, schedule: Q01DX009 (ip), vehicle: carboxymethylcellulose (CMC)); 159 % of control (dose: 44.0 mg/kg/injection, schedule: Q01DX001 (ip), vehicle: other); 159 % of control (dose: 44.4 mg/kg/injection, schedule: Q01DX001 (ip), vehicle: carboxymethylcellulose (CMC)); 244 % of control (dose: 66.6 mg/kg/injection, schedule: Q01DX001 (ip), vehicle: carboxymethylcellulose (CMC)); 193 % of control (dose: 100.0 mg/kg/injection, schedule: Q01DX001 (ip), vehicle: carboxymethylcellulose (CMC)); 100 % of control (dose: 150.0 mg/kg/injection, schedule: Q01DX001 (ip), vehicle: carboxymethylcellulose (CMC)).

Consider `c1ccc([As](C[As](c2ccccc2)c2ccccc2)c2ccccc2)cc1`, for which the T/C was 91 % of control (dose: 50.0 mg/kg/injection, schedule: Q04DX003 (ip), vehicle: Klucel (hydroxypropylcellulose) (HPC)); 97 % of control under setting [8]; 96 % of control under setting [9]; 92 % of control under setting [10].

On to `CC(=O)Nc1nc(Cl)c2ncn(C3OC(COC(=O)c4ccccc4)C(OC(=O)c4ccccc4)C3OC(=O)c3ccccc3)c2n1` (stereo not given), for which the T/C reads like this: (dose: 75.0 mg/kg/injection, schedule: Q01DX001 (ip), vehicle: saline) 95 % of control; (dose: 100.0 mg/kg/injection, schedule: Q01DX001 (ip), vehicle: saline) 103 % of control; (dose: 150.0 mg/kg/injection, schedule: Q01DX001 (ip), vehicle: saline) 98 % of control; (dose: 200.0 mg/kg/injection, schedule: Q01DX001 (ip), vehicle: saline) 101 % of control; (dose: 300.0 mg/kg/injection, schedule: Q01DX001 (ip), vehicle: saline) 95 % of control; (dose: 400.0 mg/kg/injection, schedule: Q01DX001 (ip), vehicle: saline) 95 % of control.

For the compound `CN(C)CCCNc1c2ccccc2nc2ccccc12`, the T/C is, setting by setting: (dose: 5.0 mg/kg/injection, schedule: Q01DX001 (ip), vehicle: saline) 109 % of control; (dose: 10.0 mg/kg/injection, schedule: Q01DX001 (ip), vehicle: saline) 104 % of control; (dose: 20.0 mg/kg/injection, schedule: Q01DX001 (ip), vehicle: saline) 98 % of control; (dose: 40.0 mg/kg/injection, schedule: Q01DX001 (ip), vehicle: saline) 91 % of control.

For `Cc1ccccc1-n1c(C)cc(C(=O)O)c1C`, the T/C runs as follows: under setting [6], 110 % of control; under setting [8], 102 % of control; under setting [7], 93 % of control; under setting [9], 106 % of control; under setting [11], 98 % of control; under setting [10], 88 % of control.

In the case of `Cc1cc(S(=O)(=O)F)ccc1NC(=O)Oc1ccccc1`, the T/C was 95 % of control (dose: 100.0 mg/kg/injection, schedule: Q04DX003 (ip), vehicle: gum acacia); 104 % of control (dose: 200.0 mg/kg/injection, schedule: Q04DX003 (ip), vehicle: gum acacia); 87 % of control (dose: 400.0 mg/kg/injection, schedule: Q04DX003 (ip), vehicle: gum acacia).

As to `Nc1ncnc(N)c1NC(=O)/C=C/c1ccccc1`, the T/C was 116 % of control under setting [3] and 101 % of control under setting [4].

On to `CCOc1ccc(NC(=O)Nc2cccc(F)c2)cc1`, for which the T/C is, setting by setting: (dose: 12.5 mg/kg/injection, schedule: Q01DX009 (ip), vehicle: Klucel (hydroxypropylcellulose) (HPC)) 88 % of control; (dose: 25.0 mg/kg/injection, schedule: Q01DX009 (ip), vehicle: Klucel (hydroxypropylcellulose) (HPC)) 90 % of control; under setting [5], 88 % of control; under setting [7], 90 % of control.

Regarding `CC(C)(C)C1=CC(=O)N2CC=CCC2(C#N)C1=O` (stereo not given), the T/C reads like this: under setting [1], 99 % of control; under setting [2], 99 % of control; (dose: 200.0 mg/kg/injection, schedule: Q01DX001 (ip), vehicle: Klucel (hydroxypropylcellulose) (HPC)) 99 % of control.

Consider `S=C(N/N=C/C=C/c1ccccc1)NC1CC2CC1C1C=CCC21` (stereo not given), for which the T/C under setting [6] is 94 % of control, the T/C under setting [7] is 117 % of control and the T/C under setting [11] was 88 % of control.
